Laboratory results from PubChem BioAssay AID192 (DTP/NCI, 2004).
“And” between values parts separate entries of the source, which are not always exact repeats. Equal values may be shown once. Toxic doses and inconclusive results are not listed. Square brackets hold non-standard residues; d marks the D form. Peptide text beside a SMILES is read from it. * marks the point of attachment. ξ: configuration not given here. ξF = NC(Cc1ccccc1)C(=O)O; Cbz = O=C(OCc1ccccc1)*; ξK = NCCCCC(N)C(=O)O; Bz = O=C(c1ccccc1)*

Tested on: BDF1 mice, B16 melanoma ip, median survival T/C
Experiment: NCI In Vivo Anticancer Drug Screen. Data for tumor model B16 Melanoma (intraperitoneal) in B6D2F1 (BDF1) mice
Details: endpoint: median survival time, higher = longer survival
How it was run: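 Antitumor activity is assessed in mice bearing a transplanted tumor, with survival or tumor size compared against vehicle-dosed controls and expressed as T/C.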

[1] = dose: 100.0 mg/kg/injection, schedule: Q01DX009 (ip), vehicle: Klucel (hydroxypropylcellulose) (HPC)
[2] = dose: 200.0 mg/kg/injection, schedule: Q01DX009 (ip), vehicle: Klucel (hydroxypropylcellulose) (HPC)
[3] = dose: 400.0 mg/kg/injection, schedule: Q01DX009 (ip), vehicle: Klucel (hydroxypropylcellulose) (HPC)
[4] = dose: 3.12 mg/kg/injection, schedule: Q01DX009 (ip), vehicle: saline
[5] = dose: 6.25 mg/kg/injection, schedule: Q01DX009 (ip), vehicle: saline
[6] = dose: 1.56 mg/kg/injection, schedule: Q01DX009 (ip), vehicle: saline
[7] = dose: 6.25 mg/kg/injection, schedule: Q01DX009 (ip), vehicle: saline with Tween-80
[8] = dose: 100.0 mg/kg/injection, schedule: Q01DX009 (ip), vehicle: saline with Tween-80
[9] = dose: 200.0 mg/kg/injection, schedule: Q01DX009 (ip), vehicle: saline with Tween-80
[10] = dose: 1.0 mg/kg/injection, schedule: Q01DX009 (ip), vehicle: saline
[11] = dose: 2.0 mg/kg/injection, schedule: Q01DX009 (ip), vehicle: saline
[12] = dose: 50.0 mg/kg/injection, schedule: Q01DX009 (ip), vehicle: saline with Tween-80
[13] = dose: 100.0 mg/kg/injection, schedule: Q04DX003 (ip), vehicle: saline with Tween-80
[14] = dose: 200.0 mg/kg/injection, schedule: Q04DX003 (ip), vehicle: saline with Tween-80
[15] = dose: 400.0 mg/kg/injection, schedule: Q04DX003 (ip), vehicle: saline with Tween-80
[16] = dose: 12.5 mg/kg/injection, schedule: Q01DX009 (ip), vehicle: Klucel (hydroxypropylcellulose) (HPC)
[17] = dose: 25.0 mg/kg/injection, schedule: Q01DX009 (ip), vehicle: Klucel (hydroxypropylcellulose) (HPC)
[18] = dose: 50.0 mg/kg/injection, schedule: Q01DX009 (ip), vehicle: Klucel (hydroxypropylcellulose) (HPC)
[19] = dose: 0.39 mg/kg/injection, schedule: Q01DX009 (ip), vehicle: other

CC1CC(NC(=O)/C=C/C(=O)O)CC(C)(C)C1 (stereo not drawn)
T/C [1]: 93 % of control
T/C [2]: 95 % of control
T/C [3]: 93 % of control

C=C1C(=O)O[C@@H]2[C@H](O)[C@@H](C)[C@@H]3C=CC(=O)[C@@]3(C)[C@H](OC(=O)C=C(C)C)[C@H]12
T/C (dose: 2.5 mg/kg/injection, schedule: Q01DX009 (ip), vehicle: Klucel (hydroxypropylcellulose) (HPC)): 104 % of control
T/C [4]: 102 % of control
T/C (dose: 5.0 mg/kg/injection, schedule: Q01DX009 (ip), vehicle: Klucel (hydroxypropylcellulose) (HPC)): 119 % of control
T/C [5]: 86 % of control
T/C (dose: 10.0 mg/kg/injection, schedule: Q01DX009 (ip), vehicle: Klucel (hydroxypropylcellulose) (HPC)): 113 % of control

COc1ccc2cc1Oc1ccc(cc1)C[C@H]1c3cc(c(OC)cc3CCN1C)Oc1c(O)c(OC)cc3c1[C@H](C2)N(C)CC3
T/C (dose: 25.0 mg/kg/injection, schedule: Q01DX009 (ip), vehicle: acid diluted with saline): 116 % of control
T/C (dose: 50.0 mg/kg/injection, schedule: Q01DX009 (ip), vehicle: acid diluted with saline): 105 % of control

c1ccc(CCN2CCCCC2)nc1
T/C [6]: 109 % of control
T/C (dose: 3.13 mg/kg/injection, schedule: Q01DX009 (ip), vehicle: saline): 106 % of control
T/C [5]: 100 % of control

Cc1ccc(S(=O)(=O)Nc2c([N+](=O)[O-])cc([N+](=O)[O-])c3ccccc23)cc1
T/C [7]: 107 % of control
T/C (dose: 12.5 mg/kg/injection, schedule: Q01DX009 (ip), vehicle: saline with Tween-80): 100 % of control
T/C (dose: 25.0 mg/kg/injection, schedule: Q01DX009 (ip), vehicle: saline with Tween-80): 112 % of control

Oc1cccnc1CN1CCOCC1
T/C [8]: 106 % of control
T/C [9]: 109 % of control
T/C (dose: 400.0 mg/kg/injection, schedule: Q01DX009 (ip), vehicle: saline with Tween-80): 100 % of control

CCCCCC(O)C1C(=O)OC(C)C(O)/C=C/C=C/C=C/C=C/C=C(\C)C(O)C(O)C(O)CC(O)CC(O)CC(O)CC(O)CC1O (stereo not drawn)
T/C (dose: 0.78 mg/kg/injection, schedule: Q01DX009 (ip), vehicle: saline): 124 % of control
T/C [10]: 116 % of control
T/C [6]: 119 % of control
T/C (dose: 1.78 mg/kg/injection, schedule: Q01DX009 (ip), vehicle: saline): 122 % of control
T/C [11]: 123 % of control
T/C [4]: 103 % of control
T/C (dose: 4.0 mg/kg/injection, schedule: Q01DX009 (ip), vehicle: saline): 154 % of control

c1ccc2c(c1)ccc1c[n+]3ccccc3cc12
T/C (dose: 0.25 mg/kg/injection, schedule: Q01DX009 (ip), vehicle: saline): 114 % of control
T/C (dose: 0.5 mg/kg/injection, schedule: Q01DX009 (ip), vehicle: saline): 100 % of control
T/C [10]: 97 % of control

CN(C)c1ccc(/C=C2\C=Cc3ccccc32)cc1
T/C [12]: 92 % of control
T/C [8]: 89 % of control
T/C [9]: 92 % of control

CCOP(=O)(CCCCN1C(=O)c2ccccc2C1=O)OCC
T/C (dose: 100.0 mg/kg/injection, schedule: Q01DX009 (ip), vehicle: saline): 104 % of control
T/C (dose: 200.0 mg/kg/injection, schedule: Q01DX009 (ip), vehicle: saline): 96 % of control
T/C (dose: 400.0 mg/kg/injection, schedule: Q01DX009 (ip), vehicle: saline): 103 % of control

COC(=O)Nc1nc2ccc(C(=O)c3cccs3)cc2[nH]1
T/C (dose: 20.0 mg/kg/injection, schedule: Q01DX015 (ip), vehicle: saline): 97 % of control
T/C (dose: 50.0 mg/kg/injection, schedule: Q04DX003 (ip), vehicle: other): 103 % of control
T/C (dose: 50.0 mg/kg/injection, schedule: Q04DX003 (ip), vehicle: saline with Tween-80): 180 % of control
T/C (dose: 50.0 mg/kg/injection, schedule: Q05DX005 (ip), vehicle: saline): 165 % of control
T/C (dose: 60.0 mg/kg/injection, schedule: Q05DX005 (ip), vehicle: saline): 195 % of control
T/C (dose: 70.0 mg/kg/injection, schedule: Q05DX005 (ip), vehicle: saline): 191 % of control
T/C (dose: 75.0 mg/kg/injection, schedule: Q04DX003 (ip), vehicle: other): 121 % of control
T/C [13]: 211 % of control

CC#CCOCC(CCl)OC(=O)Nc1ccccc1 (stereo not drawn)
T/C [13]: 93 % of control
T/C [14]: 97 % of control
T/C [15]: 90 % of control

CC(C)NNC(C)Cc1ccccc1 (stereo not drawn)
T/C (dose: 1.56 mg/kg/injection, schedule: Q01DX009 (ip), vehicle: Klucel (hydroxypropylcellulose) (HPC)): 91 % of control
T/C (dose: 3.12 mg/kg/injection, schedule: Q01DX009 (ip), vehicle: Klucel (hydroxypropylcellulose) (HPC)): 86 % of control
T/C (dose: 6.25 mg/kg/injection, schedule: Q01DX009 (ip), vehicle: Klucel (hydroxypropylcellulose) (HPC)): 86 % of control
T/C [16]: 91 % of control
T/C [17]: 97 % of control

NCC(=O)NC(CCCCNC(=O)OCc1ccccc1)C(=O)O (stereo not drawn) (H-Gly-[ξK](Cbz)-OH)
T/C (dose: 3.12 mg/kg/injection, schedule: Q01DX009 (ip), vehicle: saline with Tween-80): 97 % of control
T/C [7]: 101 % of control

Cc1ccc(Cl)cc1NC(=O)c1ccccc1C(=O)O
T/C [1]: 93 % of control
T/C [2]: 93 % of control
T/C [3]: 103 % of control

COc1c(O)cc2c(c1OC)-c1ccc(OC)c(=O)cc1[C@@H](NC(C)=O)CC2
T/C (dose: 0.62 mg/kg/injection, schedule: Q01DX009 (ip), vehicle: saline with Tween-80): 123 % of control

O=C(CNC(=O)c1ccccc1)NCC(=O)NC(Cc1ccccc1)C(=O)O (stereo not drawn) (Bz-Gly-Gly-[ξF]-OH)
T/C [12]: 90 % of control
T/C [8]: 87 % of control
T/C [9]: 90 % of control

O=C([CH-]C(=O)C(F)(F)F)c1ccccc1.O=C([CH-]C(=O)C(F)(F)F)c1ccccc1.O=C([CH-]C(=O)C(F)(F)F)c1ccccc1.O=C([CH-]C(=O)C(F)(F)F)c1ccccc1.[Eu+3].c1ccncc1
T/C [16]: 92 % of control and 96 % of control
T/C [17]: 88 % of control and 97 % of control
T/C [18]: 92 % of control and 101 % of control
T/C [1]: 93 % of control and 98 % of control
T/C [2]: 102 % of control and 107 % of control
T/C [3]: 93 % of control and 98 % of control

CC(C)OCCCN=C(N)N
T/C (dose: 12.5 mg/kg/injection, schedule: Q01DX009 (ip), vehicle: saline): 105 % of control
T/C (dose: 25.0 mg/kg/injection, schedule: Q01DX009 (ip), vehicle: saline): 106 % of control
T/C (dose: 50.0 mg/kg/injection, schedule: Q01DX009 (ip), vehicle: saline): 110 % of control

[N-]=[N+]=CC(=O)CCC(=O)C=[N+]=[N-]
T/C (dose: 0.18 mg/kg/injection, schedule: Q01DX009 (ip), vehicle: other): 92 % of control
T/C (dose: 0.37 mg/kg/injection, schedule: Q01DX009 (ip), vehicle: other): 96 % of control
T/C [19]: 123 % of control
T/C (dose: 0.75 mg/kg/injection, schedule: Q01DX009 (ip), vehicle: other): 92 % of control
T/C (dose: 1.5 mg/kg/injection, schedule: Q01DX009 (ip), vehicle: other): 104 % of control
T/C (dose: 1.56 mg/kg/injection, schedule: Q01DX009 (ip), vehicle: other): 101 % of control and 117 % of control

O=C(CN1C(=O)c2ccccc2C1=O)OC(c1ccccc1)c1ccccc1
T/C [18]: 90 % of control
T/C [1]: 90 % of control

CCN1C(=O)CN(CCN2CC(=O)N(c3ccccc3)C2=S)C1=S
T/C (dose: 18.75 mg/kg/injection, schedule: Q01DX009 (ip), vehicle: saline with Tween-80): 112 % of control
T/C (dose: 37.5 mg/kg/injection, schedule: Q01DX009 (ip), vehicle: saline with Tween-80): 120 % of control

NC(Cc1ccc(N(CCCl)CCCl)cc1)C(=O)O (stereo not drawn)
T/C [11]: 188 % of control
T/C (dose: 2.0 mg/kg/injection, schedule: Q01DX009 (ip), vehicle: water): 118 % of control
T/C (dose: 4.0 mg/kg/injection, schedule: Q01DX009 (ip), vehicle: water): 272 % of control
T/C (dose: 8.0 mg/kg/injection, schedule: Q01DX009 (ip), vehicle: water): 172 % of control

O=c1[nH]c(=O)n2n1CC(Br)C(Br)C2 (stereo not drawn)
T/C [13]: 97 % of control
T/C [14]: 102 % of control
T/C [15]: 110 % of control

CC[C@@]1(O)C(=O)OCc2c1cc1n(c2=O)Cc2cc3cc(OC)ccc3nc2-1
T/C [19]: 157 % of control
T/C (dose: 0.79 mg/kg/injection, schedule: Q01DX009 (ip), vehicle: other): 174 % of control
